Literature values in patent US20060051490A1, “Food component and processes for the preparation thereof” (priority 2003, published 2006).

Settings: for solubility in 100 parts of water: in 100 parts of water at room temperature, approximate

SMILES	miscibility with water	solubility in 100 parts of water [parts]
CC(O)C(=O)O (stereo not shown) [lactic acid]	miscible with water in all proportions	
CC(=O)O [Acetic acid, acetic acid]	miscible with water in all proportions	
O=C(O)CC(O)C(=O)O (stereo not shown) [malic, malic acid]		~150
O=C(O)/C=C/C(=O)O [fumaric, fumaric acid]		~1.5
